Test [1] concerns p38. Nature of the test: p38 activation in neutrophils in response to fMLP or TPA. The class given is cell-based, mice or humans. Particulars: in response to either fMLP or TPA. The procedure: (§1) In isolated peripheral neutrophils from normal mice or humans, the responses of neutrophils to stimulation by the chemotactic peptide, fMLP, or by the phorbol ester, PMA, was evaluated. […] It was known that the […], p38, is required for the respiratory burst that follows neutrophil activation. […] BM neutrophils have been isolated from normal and Camk4−/− mice and p38 activation in response to PMA has been evaluated.

Test [2] relates to isolated peripheral neutrophils. Nature of the test: Neutrophil respiratory burst and hydrogen peroxide production after stimulation by fMLP or PMA. The class given is cell-based. The following applies: isolated peripheral neutrophils from normal mice or humans. The procedure: as §1

p38 activation, hydrogen peroxide production and respiratory burst data for one compound are collected here from US7105312B2, “Ca2+/calmodulin-dependent protein kinase IV” (Duke University, priority 2001, dated 2006).

SMILES strings stand for the structures.

With `COc1ccc(S(=O)(=O)N(CCO)c2ccccc2CN(C)C/C=C/c2ccc(Cl)cc2)cc1` [KN-93], the p38 activation result in test [1] was “prevented”. In addition, in test [2], the hydrogen peroxide production entry is listed as “completely inhibited” and the respiratory burst result is “completely inhibited”.
